Measurements published in US20250368635A1, “HETEROARYL DERIVATIVE COMPOUND, AND USES THEREOF” (VORONOI, INC., priority 2022, published 2025).

Key:
[1] = test system: Ba/F3 cells expressing EGFR Del19/C797S (EGFR DC); assay: Inhibition of proliferation of Ba/F3 cells expressing EGFR Del19/C797S (CellTiter-Glo, 72 h); assay type: cell-based; conditions: Mus musculus, BaF3, 72 hours treatment
Experimental: (§1) The following experiment was performed to evaluate the inhibitory activity of the compounds according to the present invention on the proliferation of Ba/F3 cells expressing EGFR Del19/C797S (EGFR DC) and EGFR L858R/C797S (EGFR LC) mutations.
(§2) Ba/F3 cells were cultured using medium (RPMI-1640) containing 10% fetal bovine serum (FBS) and 5 ng/ml IL-3 (R&D Systems). The transduced Ba/F3 cells were cultured by adding 1 μg/ml puromycin (Invitrogen) to the same medium.
(§3) 24 hours prior to treatment with compounds, 3,000 to 5,000 cells were seeded on a well plate (white clear bottom 96 well plate, Corning). The compounds were diluted in dimethyl sulfoxide (3-fold dilution, total of 12 concentrations) and injected at 1 μl each so that the final concentration was 0.2 nM to 5 μM. After 72 hours post treatment with compounds, living cells were stored at room temperature for 10 minutes using CellTiter-Glo luminescent cell-viability reagent (Promega), and the luminescence intensity thereof was measured using a reader (Synergy Neo, Biotek). Each test was repeated three times. The result values were calculated as a cell growth rate (%) compared to the control group. A graph was created using the GraphPad Prism version 8.3.0 program, and GI50 values were calculated.

[2] = test system: Ba/F3 cells expressing EGFR L858R/C797S (EGFR LC); assay: Inhibition of proliferation of Ba/F3 cells expressing EGFR L858R/C797S (CellTiter-Glo, 72 h); assay type: cell-based; conditions: Mus musculus, BaF3, 72 hours treatment
Experimental: as §1, §2, §3

Row | SMILES | GI50 [1] [nM] | GI50 [2] [nM]
1 | COc1cc(N2CC3(CCN(C(C)(C)CF)CC3)C2)c(-c2cnn(C)c2)cc1Nc1cc(N2OCC[C@@H]2c2cccc(F)c2F)ncn1 [Example 14, (R)-6-(3-(2,3-difluorophenyl)isoxazolidin-2-yl)-N-(4-(7-(1-fluoro-2-methylpropan-2-yl)-2,7-diazaspiro[3.5]nonan-2-yl)-2-methoxy-5-(1-methyl-1H-pyrazol-4-yl)phenyl)pyrimidin-4-amine] | < 100 | < 100
2 | COc1cc(N2CCC3C(C2)C3(F)F)c(-c2cnn(C)c2)cc1Nc1cc(N2OCC[C@@H]2c2cccc(F)c2F)ncn1 (stereo partly drawn) [Example 41, N-(4-(7,7-difluoro-3-azabicyclo[4.1.0]heptan-3-yl)-2-methoxy-5-(1-methyl-1H-pyrazol-4-yl)phenyl)-6-((R)-3-(2,3-difluorophenyl)isoxazolidin-2-yl)pyrimidin-4-amine] | 100 to 1000 | 100 to 1000
3 | COc1cc(N2CCC3(CC2)CCN(C(C)(C)CF)CC3)c(-c2cnn(C)c2)cc1Nc1cc(N2OCC[C@@H]2c2ccccc2)ncn1 [Example 10, (R)-N-(4-(9-(1-fluoro-2-methylpropan-2-yl)-3,9-diazaspiro[5.5]undecan-3-yl)-2-methoxy-5-(1-methyl-1H-pyrazol-4-yl)phenyl)-6-(3-phenylisoxazolidin-2-yl)pyrimidin-4-amine] | < 100 | < 100
4 | COc1cc(N2CCC3(CCN(CCF)CC3)CC2)c(-c2cnn(C)c2)cc1Nc1cc(N2OCC[C@@H]2c2cccc(F)c2F)ncn1 [Example 50, (R)-6-(3-(2,3-difluorophenyl)isoxazolidin-2-yl)-N-(4-(9-(2-fluoroethyl)-3,9-diazaspiro[5.5]undecan-3-yl)-2-methoxy-5-(1-methyl-1H-pyrazol-4-yl)phenyl)pyrimidin-4-amine] | < 100 | < 100
5 | COc1cc(N2CCC3(CC2)CCN(C(C)(C)CF)CC3)c(-c2cn(C)nc2F)cc1Nc1cc(N2OCC[C@@H]2c2cccc(F)c2F)ncn1 [Example 1, (R)-6-(3-(2,3-difluorophenyl)isoxazolidin-2-yl)-N-(5-(3-fluoro-1-methyl-1H-pyrazol-4-yl)-4-(9-(1-fluoro-2-methylpropan-2-yl)-3,9-diazaspiro[5.5]undecan-3-yl)-2-methoxyphenyl)pyrimidin-4-amine] | < 100 | < 100
